This is an account of results in paper PMC7189019.

The data set is described as follows: On-resin head-to-side-chain macrolactonisation with cyclative cleavage: free Tyr phenol attacks the C-terminal N-acyl-MeNbz (N-acyl-N'-methylurea) resin, 10% DIEA, giving the Tyr phenyl ester. To be noted: the molecule shown is the open-chain precursor, DCM (models 1-4, rt; 1 and 4 retried in DMF at 60 C), DMF (BPC822, 60 C), scale: 1=cyclic product detected, 0=not detected.

As for `CCCCCC(=O)N[C@@H](Cc1ccc(O)cc1)C(=O)N[C@@H](C)C(=O)N[C@@H](CC(C)C)C(=O)N1CCC[C@H]1C(=O)N[C@@H](Cc1ccccc1)C(=O)N[C@H](C(=O)N[C@H](C(=O)NCC(=O)n1c(=O)n(C)c2ccc(C(=O)NCC(N)=O)cc21)C(C)C)[C@@H](C)CC`, under “29-membered ring”, the ring closure, product found stood at 1.
Under “32-membered ring”, `CCCCCC(=O)N[C@@H](Cc1ccc(O)cc1)C(=O)NCC(=O)N[C@@H](Cc1ccccc1)C(=O)N[C@@H](C)C(=O)N1CCC[C@H]1C(=O)N[C@@H](C)C(=O)N[C@H](C(=O)N[C@H](C(=O)NCC(=O)n1c(=O)n(C)c2ccc(C(=O)NCC(N)=O)cc21)C(C)C)[C@@H](C)CC` came in with a ring closure, product found of 0.
Take `CC[C@H](C)[C@H](NC(=O)[C@@H](Cc1ccc(OC(C)(C)C)cc1)NC(=O)[C@H](CCC(=O)NC(c1ccccc1)(c1ccccc1)c1ccccc1)NC(=O)[C@@H]1CCCN1C(=O)[C@@H](NC(=O)[C@H](CCC(=O)OC(C)(C)C)NC(=O)[C@@H](NC(=O)[C@H](Cc1ccc(O)cc1)NC(=O)OC(C)(C)C)[C@@H](C)OC(C)(C)C)C(C)C)C(=O)n1c(=O)n(C)c2ccc(C(=O)NCC(N)=O)cc21`: the ring closure, product found (29-membered ring, 0.5 h) came out at 1.
As to `CCCCCC(=O)N[C@@H](Cc1ccc(O)cc1)C(=O)N1CCC[C@H]1C(=O)N[C@@H](Cc1ccccc1)C(=O)N[C@H](C(=O)N[C@H](C(=O)NCC(=O)n1c(=O)n(C)c2ccc(C(=O)NCC(N)=O)cc21)C(C)C)[C@@H](C)CC`, the ring closure, product found (23-membered ring) stood at 0.
Take `CCCCCC(=O)N[C@@H](Cc1ccc(O)cc1)C(=O)N[C@@H](CC(C)C)C(=O)N1CCC[C@H]1C(=O)N[C@@H](Cc1ccccc1)C(=O)N[C@H](C(=O)N[C@H](C(=O)NCC(=O)n1c(=O)n(C)c2ccc(C(=O)NCC(N)=O)cc21)C(C)C)[C@@H](C)CC`: the ring closure, product found (26-membered ring) came out at 1.
